This is an account of results in article PMC6321567 (2018).

The assay concerns 22HT (DNA, G4) AGGGTTAGGGTTAGGGTTAGGG
As to the kind of experiment: CD melting at 293 nm. Particulars: 10 mM Tris-HCl pH 7.2, 3 equiv. ligand.

As for `CC[n+]1c(/C=C/c2ccc3c(c2)c2ccccc2n3CCCCn2ccnc2)sc2ccccc21`, the ΔTm (usually the shift of the melting midpoint relative to a reference) is 4.3 °C (100 mM KCl, 2 µM DNA, SD of Tm ±0.5 °C); 4.5 °C (100 mM NaCl, 2 µM DNA, SD of Tm ±0.5 °C); more than 30.6 °C (no added Na+ or K+, ligand-induced G4 folding, Tm without ligand <14 °C).
